Experimental data reported in patent US9364002B2, “Plant volatiles” (Keygene N.V., priority 2007, dated 2016).

Tests used:
B. tabaci [1] = assay: Statistical correlation (stepwise-linear regression, MANOVA) of headspace volatiles with whitefly repellence ranking; parameters: species or system Bemisia tabaci; conditions: for compounds responsible for repellency or attraction of whitefly: linked to S. pennelli, S. habrochaites or cultivated S. lycopersicum headspace; for Effect on insects: volatiles of tomato headspace correlated to whitefly repellency/attraction score by linear regression; for association: semiochemicals associated to B. tabaci repellence or attraction
Source text: In a large experiment (see Example 2), the headspace of 16 wild tomato accessions and 5 cultivated tomato lines were sampled and analyzed (6 repeats). In total 51 compounds were identified to be present in the captured headspace. Furthermore, the level of repellency/attraction of each of the 21 tomato accessions was established in free choice bioassays with B. tabaci (biotype Q), using a ranking scale of 1-7 (1=highest repellency to 7=lowest repellency). Next, the identified volatile compounds were correlated to the repellency/attraction score of each tomato accession through a linear regression analysis.
The headspace of 16 wild tomatoes and 5 cultivated tomatoes (Table 4) was collected. Undisturbed 3-weeks old tomato plants were transferred to 40-L desiccators. The headspace was sampled during 24 h including a 16 h light period, by trapping of the volatile components as described above. […] Each accession was sampled 6 times.
In a statistical analysis the correlation between the identified components of the tomato headspace and the ranking of whitefly repellence measured in the bioassays was made. Using two approaches, a stepwise-linear regression analysis and a MANOVA, 8 volatiles were identified to be correlated to whitefly repellence, whereas 24 other volatile compounds were eliminated as non-relevant for repellency or attraction.

[2] = system: adult whiteflies B. tabaci; conditions: cited from earlier work
[3] = system: fourth instar larvae of Colorado potato beetle; conditions: cited from earlier work
B. tabaci [4] = assay: Free-choice bioassay: headspace or pure volatiles added to one of four cv Moneymaker tomato plants; assay type: in vivo, Bemisia tabaci (biotype Q, Almeria population); conditions: pure compound added to Moneymaker background
Method: A population of Bemisia tabaci was collected at a common greenhouse in Santa Maria del Aguila (Almeria, Spain) in October 2005. By PCR analyses this population was identified to belong to the Q-biotype. The population was reared in a climate chamber (Temperature 28° C., 16 h light) on a mixture of tomato and cucumber plants. Preference of the insects for particular plants (treated or untreated/control-treated) was tested in free choice bioassays.
Free choice experiments with B. tabaci were carried out in a greenhouse compartment (28° C., RH 65%). Light was supplied by high-pressure sodium lamps (Hortilex Schréder SON-T PIA GP 600 W) with a radiation of 250 W/m^2. The preference behaviour of B. tabaci biotype Q (Almeria population) and biotype B (labculture Netherlands) was compared in bioassays with different wild tomatoes (LA1777, LA2560, GI1560) and S. lycopersicum cv Moneymaker). Plants were placed inside a plastic covered wooden tray (170×100×20 cm) filled with soil, at equal distance from each other. Two hundred adult whiteflies were captured, placed at 4° C. for five minutes and then released in the middle of the setup. Ten and 20 minutes after release, the number of whiteflies on each plant was recorded. Since no differential behaviour between B. tabaci B and Q was found, all further bioassays were done with the Almeria (Q) population.
For bioassays with headspace (total headspace or single compounds) four potted tomato plants (S. esculentum cv Moneymaker) were placed in a square setup at a distance of 50 cm. One hundred and fifty adult whiteflies were released and recorded as described above. To test the effect of selected headspace components on repellence, synthetic standards (FLUKA) were applied to either 10 filter-papers discs (Whatman, 25 mm diameter) or 10 rubber septa (Sigma Aldrich, Z167258). Prior to loading, the septa were placed in CH2Cl2 for 24 h and air-dried for 3 days (Heath et al., 1986). The paper discs or septa containing volatiles were attached to one of the four plants with metal wire. The position of the treated tomato was randomised. Five minutes after placing the volatiles on the plant, whiteflies were released. For each component at least 8 replications were carried out. Treatments were administered in a setup in which compounds were always added to the same plant in comparison to 3 plants with empty carriers. Prior to each assay with volatiles, the experiment was done with the 4 plants in an untreated setup, in the same position to allow comparison in the same background.
Host preference with and without manipulated headspace by B. tabaci was explored in free choice assays. In each setup four cultivated tomatoes (cv. Moneymaker) were tested as described earlier. For the bioassays with volatiles rubber septa (Sigma Aldrich Z167258) were extracted with CH2Cl2 for 24 hours and dried to the air for 3 days. The desired blend of volatiles was added to the rubber septa in 100 μl hexane. Bioassays with pure components, or mixtures of pure components were carried out as described above.

B. tabaci antennae = assay: Electroantennography (EAG); parameters: species or system Bemisia tabaci; conditions: 10^-3 dilution in paraffin oil; response to paraffin oil subtracted
Method: Electroantennography (EAG) was employed to confirm the responsiveness of the atennae to 10^−3 dilution in paraffin oil (Uvasol, Merck) of the chemicals described. Small pieces of filter paper (2 cm2; Schleicher & Schuell, Dassel, Germany) were soaked with 100 μl of the standard dilution or praffin oil only (control). The filter paper was inserted into a 10-ml glass syringe (Poulten & Graf GmbH, Wertheim, Germany). A reproducible stimulus was supplied by puffing 5 ml of air over the antenna (Schutz et al., 1999). The EAG response was recorded for each standard (10^−3) dilution. The response to paraffin oil was considered as a negative control and was subtracted from all the reported EAG measurements. The EAG response expressed as a potential difference across the electrodes (in mV) for the different pure chemicals is given in the right-hand column of Table 5.

[5] = system: pests of cut flowers (e.g. B. tabaci); conditions: fumigants at 10-20 mg/l, after 2-4 hours of exposure; cited from earlier work

Row | Compound | compounds responsible for repellency or attraction of whitefly (B. tabaci [1]) | Effect on insects (B. tabaci [1]) | effect on repellence/attractiveness of treated tomato plant (in words) (B. tabaci [4]) | association (B. tabaci [1]) | antennal response (EAG potential difference) (B. tabaci antennae) [mV] | also measured
1 | CC1=CC2C(CC1)C2(C)C (stereo not drawn) [2-carene] | significantly correlated to the more attractive cultivated S. lycopersicum plants | Attractant | – | – | – | –
2 | CCCCCCCCCCCC(C)=O [2-tridecanone] | – | – | – | – | – | toxic effect [2]: toxic effect
3 | CCCCCCCCCC(C)=O [2-undecanone] | – | – | – | – | – | toxic effect [3]: toxic effect
4 | CC(C)=CCC[C@@H](C)[C@@H]1C=CC(C)=CC1 [7-epi zingiberene] | more unattractive | – | clear repellent effect | repellence | 2.3 | –
5 | CC1=CCC(C(C)C)C=C1 (stereo not drawn) [Alpha-phellandrene] | repellent | Repellent | decreased tomato attractiveness significantly | repellence | 2.2 | –
6 | CC1=CC=C(C(C)C)CC1 [Alpha-terpinene] | repellent | Repellent | decreased tomato attractiveness significantly | repellence | 4.1 | –
7 | CC12CCC(CC1)C(C)(C)O2 [Cineole] | – | – | – | – | – | mortality [5]: caused mortality
8 | CC(C)=CCC[C@H](C)c1ccc(C)cc1 [S-curcumene] | more unattractive | – | clear repellent effect | repellence | 5.0 | –
9 | CC(C)=CCCC(C)c1ccc(C)cc1 (stereo not drawn) [alpha-curcumene] | – | Repellent | – | – | – | –
10 | C=CC(=C)CCC=C(C)C [beta-myrcene] | repellent | Repellent | – | – | – | –
11 | C=C1C=CC(C(C)C)CC1 (stereo not drawn) [beta-phellandrene] | significantly correlated to the more attractive cultivated S. lycopersicum plants | Attractant | – | – | – | –
12 | CC1=CCC(C(C)C)=CC1 [gamma-terpinene] | repellent | Repellent | no significant behavioural effect | – | – | –
13 | C=C(C)[C@H]1CC=C(C)CC1 [limonene] | significantly correlated to the more attractive cultivated S. lycopersicum plants | Attractant | – | – | – | –
14 | Cc1ccc(C(C)C)cc1 [para-cymene] | repellent | Repellent | – | repellence | 2.4 | –
15 | C=CCc1ccc2c(c1)OCO2 [safrole] | – | – | – | – | – | mortality [5]: caused mortality
16 | CC(C)=CCCC(C)[C@@H]1C=CC(C)=CC1 (stereo partly drawn) [zingiberene] | – | Repellent | – | – | – | –
